Values after ≈ are worked out from the molar mass of the structure shown. Where two headings read alike, the source gives them in different places.
Experiments:
[1] = known classification of the test chemicals used; cited from earlier work
[2] = system: balb/c 3T3 cells cloneA31; assay: 3T3 cell proliferation test (CellTiter-Glo); format: cell-based; settings: Mus musculus, BALB/c3T3, 144 h, read-out: 3T3 IC50 (50% inhibitory concentration for cell growth)
Method: In addition, using balb/c 3T3 cells cloneA31 obtained from ATCC (hereinafter, 3T3 cells), the effects of each test chemical on cell proliferation were evaluated by the following method. The 3T3 cells cultured in DMEM medium containing 10% heat inactivated fetal bovine serum, 2 mM glutamine, penicillin and streptomycin (medium for 3T3) in an incubator at 37° C. and 5% CO2 were dispersed using 0.25% trypsin/1 mM EDTA, and thereafter, the cells were suspended in the medium for 3T3. Residual trypsin was removed by centrifugation and suction of the supernatant, and the cells were suspended in the medium for 3T3. Thereafter, the number of cells was counted using a small amount of the cell solution, and a cell suspension was prepared so as to have a cell number of 10,000 cells/mL. The prepared cell suspensions were added with only solvent such as PBS(−) or DMSO as a solvent control or added with a test chemical prepared by diluting with solvent into several levels. Thereafter, each cell suspension was seeded in a white 96-well plate for cell culture in a volume of 50 μL, and the culture was performed for 3 days. On day 3, 50 μL of the medium for 3T3 supplemented with the test chemical again prepared was added, and the culture was continued for 3 days. On day 6, the supernatant of each well was removed by suction, then, each well was supplemented with the solution in a CellTiter-Glo™ Luminescent Cell Viability Assay kit (Promega) and shaken for 30 minutes, and thereafter, the activity was measured with a TopCount NXT luminescence detection counter. […] The activity values obtained from each test of the Hand1-ES cells and the 3T3 cells were averaged and tallied for the solvent control group and every concentration of the test chemical, and thereafter, a relative value of each concentration was calculated using the average value of the solvent control group as 100%.

Hand1-ES cells = assay: Hand1-ES cell luciferase reporter test during myocardial differentiation; settings: for Hand1-ES ID50 (50% inhibitory concentration for differentiation): concentration at which 50% of the luciferase activity is inhibited, day 6, medium for myocardial differentiation
Method: Hand1-ES cell line was cultured while maintaining an undifferentiated state in DMEM medium containing 15% heat inactivated fetal bovine serum supplemented with LIF containing 100 μg/mL G418. The undifferentiated Hand1-ES cells were dispersed using 0.25% trypsin/1 mM EDTA, and thereafter, the cells were suspended in DMEM medium containing 15% heat inactivated fetal bovine serum. Residual trypsin was removed by centrifugation and suction of the supernatant, and the cells were suspended in DMEM medium containing 15% heat inactivated fetal bovine serum not containing LIF (hereinafter, medium for myocardial differentiation). Thereafter, the number of cells was counted using a small amount of the cell solution, and a cell suspension (medium for myocardial differentiation) was prepared so as to have a cell number of 15,000 cells/mL. The prepared cell suspensions were added with only solvent such as PBS(−) or DMSO as a solvent control or added with a test chemical prepared by diluting with solvent into several levels, and thereafter, each cell suspension was seeded in a nonadherent U-bottom 96-well plate in a volume of 50 μL, and the culture was performed for 3 days. On day 3, 50 μL of the medium for myocardial differentiation supplemented with the test chemical again prepared was added, and the suspension culture was continued for 3 days. On day 6, 100 μL of a luciferase luminescent reagent, Steady-Glo (Promega), was added to each well and shaken for 30 minutes, and thereafter, the total amount was transferred to a 96-well white plate, and the luciferase activity was measured with a TopCount NXT luminescence detection counter (Packard Japan). The obtained activity values were averaged and tallied for the solvent control group and every concentration of the test chemical.

[3] = day 6, CellTiter-Glo luminescence

SMILES | in vivo embryotoxicity [1] | IC50 [2, 3] | Embryotoxicity assessment from comparing Hand1-ES ID50 with 3T3 IC50 (Hand1-ES cells) | Hand1-ES ID50 (50% inhibitory concentration for differentiation) (Hand1-ES cells) | Embryotoxicity assessment from comparing Hand1-ES ID50 with 3T3 IC50 (Hand1-ES cells; ID50<IC50 = embryotoxic, ID50 larger than IC50 = not shown) | IC50 [2]
C[C@@H]1C[C@H]2[C@@H]3CCC4=CC(=O)C=C[C@]4(C)[C@@]3(F)[C@@H](O)C[C@]2(C)[C@@]1(O)C(=O)CO [dexamethasone] | positive | 36.7 µg/mL (≈ 93.5 µM) | has embryotoxicity | 15.6 µg/mL | – | –
O=c1[nH]cc(F)c(=O)[nH]1 [5-fluorouracil] | positive | 0.16 µg/mL (≈ 1.23 µM) | has embryotoxicity | 0.02 µg/mL | – | –
C=CC(N)=O [acrylamide] | negative | 54 µg/mL (≈ 760 µM) | – | 85.3 µg/mL | embryotoxicity is not shown | –
O=c1[nH]c(=O)n([C@H]2C[C@H](O)[C@@H](CO)O2)cc1Br [5-bromo-2′-deoxyuridine] | positive | 0.8 µg/mL (≈ 2.61 µM) | has embryotoxicity | 0.12 µg/mL | – | –
O=C1O[C@H]([C@@H](O)CO)C(O)=C1O [ascorbic acid] | – | – | embryotoxicity is not shown | 28.3 µg/mL | – | 2 µg/mL (≈ 11.4 µM)
NC(=O)NO [hydroxyurea] | – | 4.7 µg/mL (≈ 61.8 µM) | has embryotoxicity | 2.5 µg/mL | – | –

Reference: patent publication US9783852B2, “Method for assessing embryotoxicity” (priority 2008, dated 2017)
